Article PMC6934184, “Selective DNA-PKcs inhibition extends the therapeutic index of localized radiotherapy and chemotherapy” (The Journal of Clinical Investigation, 2019)

Target: T1, ABL1 E255K (Homo sapiens, UniProt P00519, E255K)
T1 construct: purchased Thermo Fisher Scientific (Life Technologies) SelectScreen
Assay: SelectScreen Z'LYTE
Assay type: biochemical
In short: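 Percent values come from Thermo SelectScreen profiling of NU5455, combining activity and binding assays. CSF1R was run in Z'LYTE format at Km app ATP, and CAMK1 in Adapta format with ATP listed at 10.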

T1 sequence (P00519 whole entry E255K): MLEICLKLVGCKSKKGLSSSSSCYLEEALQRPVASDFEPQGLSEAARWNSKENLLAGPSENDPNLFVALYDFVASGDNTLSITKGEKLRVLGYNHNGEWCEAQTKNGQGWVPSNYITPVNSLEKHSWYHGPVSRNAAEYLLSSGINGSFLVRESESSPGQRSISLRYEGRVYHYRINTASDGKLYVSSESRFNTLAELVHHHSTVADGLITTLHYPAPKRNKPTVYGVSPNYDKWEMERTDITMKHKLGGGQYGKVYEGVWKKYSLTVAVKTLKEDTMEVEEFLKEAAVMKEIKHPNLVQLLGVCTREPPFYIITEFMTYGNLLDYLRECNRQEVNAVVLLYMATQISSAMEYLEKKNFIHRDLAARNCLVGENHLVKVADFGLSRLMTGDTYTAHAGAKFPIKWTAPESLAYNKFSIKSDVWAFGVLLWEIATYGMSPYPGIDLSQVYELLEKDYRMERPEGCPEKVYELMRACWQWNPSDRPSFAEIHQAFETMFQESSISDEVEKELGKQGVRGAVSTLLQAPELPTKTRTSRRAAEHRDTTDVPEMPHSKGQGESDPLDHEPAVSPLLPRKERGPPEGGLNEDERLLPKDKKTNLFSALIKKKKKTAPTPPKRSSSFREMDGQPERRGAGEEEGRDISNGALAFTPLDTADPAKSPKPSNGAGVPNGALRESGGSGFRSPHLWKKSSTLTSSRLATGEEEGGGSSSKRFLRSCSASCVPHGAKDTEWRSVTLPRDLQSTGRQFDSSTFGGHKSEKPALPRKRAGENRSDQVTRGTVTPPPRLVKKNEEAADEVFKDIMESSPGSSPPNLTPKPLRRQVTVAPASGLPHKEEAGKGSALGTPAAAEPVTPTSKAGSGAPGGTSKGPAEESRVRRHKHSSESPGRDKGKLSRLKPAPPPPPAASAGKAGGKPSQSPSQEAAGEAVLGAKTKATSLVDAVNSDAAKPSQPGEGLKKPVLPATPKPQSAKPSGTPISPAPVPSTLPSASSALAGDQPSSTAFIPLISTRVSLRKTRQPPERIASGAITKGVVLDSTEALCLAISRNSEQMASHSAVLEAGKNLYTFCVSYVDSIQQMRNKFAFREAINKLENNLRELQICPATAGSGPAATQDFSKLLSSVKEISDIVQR

CN(C(=O)CN1CCOCC1)c1ccc2sc3c(-c4cccc5c(=O)cc(N6CC7CCC(C6)O7)oc45)cccc3c2c1 [NU5455]
inhibition at 1 µM: -6.6%
